Assays:
JAK2 = JAK2 (Homo sapiens (Human), UniProt O60674); assay: Biochemical JAK2 kinase assay (LanthaScreen)
In short: (§1)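 GST-JAK + GFP-STAT1 peptide, HEPES pH 7.5/MgCl2/EGTA/Brij-35 buffer; cpd preincubation 1 h RT; ATP start, 1 h RT; stop with 10 mM EDTA + 2 nM Tb-anti-pSTAT1; TR-FRET 520/495. 4-parameter IC50 → pKi (Cheng-Prusoff).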

JAK3 = JAK3 (Homo sapiens (Human), UniProt P52333); assay: Biochemical JAK3 kinase assay (LanthaScreen); details: for JAK3 (pKi)-JAK1 (pKi): selectivity JAK3 over JAK1, difference of pKi
JAK3, sequence (P52333 whole entry): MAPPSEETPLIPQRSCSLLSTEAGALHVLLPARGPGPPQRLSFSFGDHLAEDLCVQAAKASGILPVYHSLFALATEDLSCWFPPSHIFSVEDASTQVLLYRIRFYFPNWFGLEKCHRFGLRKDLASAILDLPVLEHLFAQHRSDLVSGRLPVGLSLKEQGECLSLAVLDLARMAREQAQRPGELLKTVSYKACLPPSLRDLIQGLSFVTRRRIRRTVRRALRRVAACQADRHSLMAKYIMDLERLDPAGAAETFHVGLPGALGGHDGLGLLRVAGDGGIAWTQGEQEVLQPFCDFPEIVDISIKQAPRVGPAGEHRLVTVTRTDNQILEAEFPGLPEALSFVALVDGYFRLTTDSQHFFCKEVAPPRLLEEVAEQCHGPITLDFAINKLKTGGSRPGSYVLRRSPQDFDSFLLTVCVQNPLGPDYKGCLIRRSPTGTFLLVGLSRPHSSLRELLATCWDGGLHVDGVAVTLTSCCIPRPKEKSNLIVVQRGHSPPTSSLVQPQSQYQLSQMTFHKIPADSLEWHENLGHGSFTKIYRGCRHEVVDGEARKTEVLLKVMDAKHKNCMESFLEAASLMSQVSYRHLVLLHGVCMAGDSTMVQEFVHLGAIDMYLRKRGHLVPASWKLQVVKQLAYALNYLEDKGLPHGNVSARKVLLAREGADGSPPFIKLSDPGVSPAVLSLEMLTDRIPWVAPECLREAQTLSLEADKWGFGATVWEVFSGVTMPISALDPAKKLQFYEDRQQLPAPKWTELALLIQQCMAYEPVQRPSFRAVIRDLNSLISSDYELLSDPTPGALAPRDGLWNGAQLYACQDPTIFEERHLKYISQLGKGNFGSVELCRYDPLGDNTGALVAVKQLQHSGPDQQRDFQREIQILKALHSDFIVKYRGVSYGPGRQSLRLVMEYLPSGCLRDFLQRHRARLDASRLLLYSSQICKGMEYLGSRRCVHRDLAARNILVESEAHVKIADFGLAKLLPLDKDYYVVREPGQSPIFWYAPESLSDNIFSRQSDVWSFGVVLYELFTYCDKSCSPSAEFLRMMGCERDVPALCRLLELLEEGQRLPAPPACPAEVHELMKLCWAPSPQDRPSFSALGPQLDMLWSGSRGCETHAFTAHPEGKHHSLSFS
In short: as §1

Tyk2 = Tyk2 (Homo sapiens (Human), UniProt P29597); assay: Biochemical Tyk2 kinase assay (LanthaScreen)
Tyk2, sequence (P29597 whole entry): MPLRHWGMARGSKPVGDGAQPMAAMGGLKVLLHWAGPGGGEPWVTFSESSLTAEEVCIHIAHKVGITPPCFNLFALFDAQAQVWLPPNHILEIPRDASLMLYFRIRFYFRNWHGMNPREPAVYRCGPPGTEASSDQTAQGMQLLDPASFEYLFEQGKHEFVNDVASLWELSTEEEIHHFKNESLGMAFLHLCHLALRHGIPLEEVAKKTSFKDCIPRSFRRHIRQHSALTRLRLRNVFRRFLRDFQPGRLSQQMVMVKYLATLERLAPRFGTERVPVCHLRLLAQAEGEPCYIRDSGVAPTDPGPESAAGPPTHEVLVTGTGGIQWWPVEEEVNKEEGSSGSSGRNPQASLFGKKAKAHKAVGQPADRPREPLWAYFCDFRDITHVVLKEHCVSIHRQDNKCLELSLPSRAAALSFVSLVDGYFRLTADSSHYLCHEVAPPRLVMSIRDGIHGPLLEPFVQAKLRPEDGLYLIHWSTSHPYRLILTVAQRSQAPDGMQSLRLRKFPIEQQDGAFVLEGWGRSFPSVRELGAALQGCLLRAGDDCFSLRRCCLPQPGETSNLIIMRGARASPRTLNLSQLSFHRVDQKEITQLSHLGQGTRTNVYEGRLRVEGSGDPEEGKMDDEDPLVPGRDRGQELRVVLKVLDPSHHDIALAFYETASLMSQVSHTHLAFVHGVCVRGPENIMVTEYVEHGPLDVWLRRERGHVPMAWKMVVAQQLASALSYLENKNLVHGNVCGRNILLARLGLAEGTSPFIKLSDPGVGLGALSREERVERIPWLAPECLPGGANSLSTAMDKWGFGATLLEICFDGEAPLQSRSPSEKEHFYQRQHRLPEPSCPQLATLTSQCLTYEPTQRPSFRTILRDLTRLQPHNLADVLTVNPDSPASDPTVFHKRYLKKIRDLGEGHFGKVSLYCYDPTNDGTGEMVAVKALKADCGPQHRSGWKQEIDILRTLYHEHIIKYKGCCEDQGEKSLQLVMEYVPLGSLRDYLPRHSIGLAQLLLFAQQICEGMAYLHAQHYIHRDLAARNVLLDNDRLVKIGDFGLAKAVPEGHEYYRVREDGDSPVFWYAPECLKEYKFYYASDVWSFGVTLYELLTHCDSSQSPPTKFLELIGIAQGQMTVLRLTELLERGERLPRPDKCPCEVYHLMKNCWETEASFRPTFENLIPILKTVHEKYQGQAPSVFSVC
In short: as §1

JAK1 = JAK1 (Homo sapiens (Human), UniProt P23458); assay: Biochemical JAK1 kinase assay (LanthaScreen)
JAK1, sequence (P23458 whole entry): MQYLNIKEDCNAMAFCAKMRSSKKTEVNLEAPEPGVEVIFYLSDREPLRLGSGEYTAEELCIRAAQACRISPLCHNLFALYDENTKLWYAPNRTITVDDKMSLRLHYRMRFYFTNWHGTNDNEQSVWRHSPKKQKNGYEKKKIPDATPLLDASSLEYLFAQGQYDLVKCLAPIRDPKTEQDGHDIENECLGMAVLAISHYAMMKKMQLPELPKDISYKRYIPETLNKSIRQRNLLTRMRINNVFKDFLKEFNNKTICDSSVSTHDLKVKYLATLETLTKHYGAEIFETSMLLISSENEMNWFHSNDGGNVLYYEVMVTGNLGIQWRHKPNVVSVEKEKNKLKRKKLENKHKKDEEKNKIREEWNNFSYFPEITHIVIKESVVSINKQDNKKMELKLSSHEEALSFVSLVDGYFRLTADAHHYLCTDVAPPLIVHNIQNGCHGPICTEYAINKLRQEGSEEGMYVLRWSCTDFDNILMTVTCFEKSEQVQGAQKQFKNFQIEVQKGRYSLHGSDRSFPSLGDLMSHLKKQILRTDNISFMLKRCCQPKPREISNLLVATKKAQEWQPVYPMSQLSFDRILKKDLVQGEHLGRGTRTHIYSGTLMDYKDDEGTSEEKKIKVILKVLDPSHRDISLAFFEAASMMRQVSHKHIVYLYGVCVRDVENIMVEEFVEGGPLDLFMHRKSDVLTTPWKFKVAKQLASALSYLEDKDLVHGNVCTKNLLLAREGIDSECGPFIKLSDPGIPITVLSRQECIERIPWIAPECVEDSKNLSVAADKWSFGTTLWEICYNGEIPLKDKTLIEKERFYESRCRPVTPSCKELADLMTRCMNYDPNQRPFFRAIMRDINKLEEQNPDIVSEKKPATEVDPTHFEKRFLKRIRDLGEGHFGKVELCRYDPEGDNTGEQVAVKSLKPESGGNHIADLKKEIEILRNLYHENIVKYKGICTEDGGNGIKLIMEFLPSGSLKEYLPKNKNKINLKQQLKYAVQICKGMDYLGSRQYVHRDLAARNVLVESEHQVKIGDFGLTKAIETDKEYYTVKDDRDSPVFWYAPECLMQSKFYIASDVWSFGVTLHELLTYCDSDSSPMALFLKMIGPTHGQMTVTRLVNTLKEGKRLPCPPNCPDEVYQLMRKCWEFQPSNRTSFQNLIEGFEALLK
In short: as §1

[1] = tested on: IL-2 stimulated STAT5 phosphorylation in Tall-1 human T cell line (JAK3); assay: Cellular JAK3 potency assay: inhibition of IL-2 stimulated pSTAT5 in Tall-1 T cells; format: cell-based; details: IL-2 stimulated pSTAT5, Tall-1 T cells
In short: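 AlphaLISA SureFire Ultra measures STAT5 Tyr694/699 phosphorylation in lysed Tall-1 human T cells. Cells were exposed to compound for 1 h at 37 °C before a 30 min IL-2 challenge (300 ng/ml final). Values are pIC50 means with standard deviation from signal-versus-concentration curves.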

Caco-2 cell monolayers = assay: Caco-2 permeation assay; format: in vitro ADME; details: 5 μM, A-B direction, with Verapamil (25 μM)
Protocol: Assay 4: Caco-2 Permeation Assay
The Caco-2 permeation assay was performed to model the ability of test compounds to pass through the intestine and get into the blood stream after oral administration. The rate at which test compounds in solution permeate a cell monolayer designed to mimic the tight junction of human small intestinal monolayers was determined.
CacoReady 24-well transwell plates were obtained from ADMEcell (Alameda, Calif.). The compounds were evaluated at a concentration of 5 μM from 10 mM DMSO stock solutions in duplicate (n=2). The passive permeability of the compounds tested was evaluated using Caco-2 cell monolayers along with Verapamil (25 μM) to inhibit P-gp transport proteins in the apical to basolateral (A-B) direction. The experiment was conducted in a 37° C., 5% CO2 incubator. Caco-2 culture media consisted of standard filtered DMEM, FCS 10%, L-Glutamine 1% and PenStrep 1%. Basal assay plate was prepared by adding 750 μL of transport buffer to A-B wells. A CacoReady™ plate was prepared by removing the Caco-2 media from the apical wells and replacing with fresh transport media (200 μL repeated for a total of 3 washes). Blank media (200 μL) was then replaced with diluted compound for A-B wells. To begin the incubation, the basal plate was removed from the incubator and the apical section was added on top of it. Samples (40 μL) were collected from the apical and basal compartments for time zero (t0). Samples were collected again after 120 minutes (t120) from the apical and basal compartments. All samples were diluted and prepared for bioanalysis by LC-MS/MS. The permeation coefficient (Kp, mean A to B+ Verapamil Papparent) in cm/sec was calculated as dQ (flux)/(dt×Area×concentration).
In this assay, a Kp value less than about 5×10^−6 cm/sec is considered favorable to minimize systemic exposure and target the colon. A Kp value less than about 10×10^−6 cm/sec may also be sufficient to minimize systemic exposure and target the colon.

JAK2, sequence (O60674 whole entry): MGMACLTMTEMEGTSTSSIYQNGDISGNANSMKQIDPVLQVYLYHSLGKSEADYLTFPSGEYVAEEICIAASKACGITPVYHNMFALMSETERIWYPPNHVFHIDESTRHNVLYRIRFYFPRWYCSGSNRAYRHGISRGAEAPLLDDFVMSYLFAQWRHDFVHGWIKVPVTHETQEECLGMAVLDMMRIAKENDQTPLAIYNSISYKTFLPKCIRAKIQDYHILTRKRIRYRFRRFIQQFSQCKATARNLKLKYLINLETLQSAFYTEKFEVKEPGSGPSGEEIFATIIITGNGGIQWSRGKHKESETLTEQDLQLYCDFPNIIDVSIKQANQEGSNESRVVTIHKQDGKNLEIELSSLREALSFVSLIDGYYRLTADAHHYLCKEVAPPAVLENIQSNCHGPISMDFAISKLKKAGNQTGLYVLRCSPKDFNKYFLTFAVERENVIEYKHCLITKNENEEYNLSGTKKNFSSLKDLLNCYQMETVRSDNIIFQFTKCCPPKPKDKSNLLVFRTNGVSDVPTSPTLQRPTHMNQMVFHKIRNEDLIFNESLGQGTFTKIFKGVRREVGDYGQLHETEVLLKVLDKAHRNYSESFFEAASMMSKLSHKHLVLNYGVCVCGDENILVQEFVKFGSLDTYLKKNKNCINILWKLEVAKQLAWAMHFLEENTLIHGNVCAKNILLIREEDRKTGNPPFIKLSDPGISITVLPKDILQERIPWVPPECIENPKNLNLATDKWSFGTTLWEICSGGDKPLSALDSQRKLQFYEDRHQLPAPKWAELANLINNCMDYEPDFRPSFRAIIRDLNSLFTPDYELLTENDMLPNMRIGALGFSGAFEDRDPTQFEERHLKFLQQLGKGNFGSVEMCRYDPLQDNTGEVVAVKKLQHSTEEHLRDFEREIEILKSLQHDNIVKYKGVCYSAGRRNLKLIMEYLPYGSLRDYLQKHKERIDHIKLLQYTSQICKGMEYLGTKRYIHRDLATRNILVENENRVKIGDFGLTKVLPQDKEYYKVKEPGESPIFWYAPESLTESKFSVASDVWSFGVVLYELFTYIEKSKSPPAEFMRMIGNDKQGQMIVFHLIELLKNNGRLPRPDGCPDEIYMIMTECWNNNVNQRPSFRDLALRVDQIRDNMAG

Compound	JAK 2 (pKi) (JAK2)	JAK 3 (pKi) (JAK3)	JAK3 (pKi)-JAK1 (pKi) (JAK3)	Tyk 2 (pKi) (Tyk2)	JAK 1 (pKi) (JAK1)	Tall-1 (pIC50) [1]	Caco Kp (Caco-2 cell monolayers)
C=CC(=O)N1CC(CCn2c(=O)ccc3cnc(Nc4ccc5c(c4)oc(=O)n5C)nc32)C1 [Example 60]	E (E represents a pKi value of 7 or below (Ki of 100 nM or above))	B (B represents pKi value between 9 and 10 (Ki between 1 nM and 0.1 nM))	A (A represents a value of 3 or above)	E (E represents a pKi value of 7 or below (Ki of 100 nM or above))	E (E represents a pKi value of 7 or below (Ki of 100 nM or above))	B (B represents a pC50 value between 6.7 (included) and 7.5 (IC50 between 200 nM and 32 nM))	B (B represents a value between 5×10^−6 and 10×10^−6 cm/sec)
C=CC(=O)N1CC(CCn2c(=O)ccc3cnc(Nc4cnn(CCN5CCOCC5)c4)nc32)C1 [Example 61]	E (E represents a pKi value of 7 or below (Ki of 100 nM or above))	B (B represents pKi value between 9 and 10 (Ki between 1 nM and 0.1 nM))	A (A represents a value of 3 or above)	E (E represents a pKi value of 7 or below (Ki of 100 nM or above))	E (E represents a pKi value of 7 or below (Ki of 100 nM or above))	B (B represents a pC50 value between 6.7 (included) and 7.5 (IC50 between 200 nM and 32 nM))	A (A represents a value below 5×10^−6 cm/sec)
C=CC(=O)N1CC(CCn2c(=O)ccc3cnc(Nc4ccc(N5CCN(C(C)(C)C)CC5)cc4)nc32)C1 [Example 62]	E (E represents a pKi value of 7 or below (Ki of 100 nM or above))	B (B represents pKi value between 9 and 10 (Ki between 1 nM and 0.1 nM))	A (A represents a value of 3 or above)	E (E represents a pKi value of 7 or below (Ki of 100 nM or above))	E (E represents a pKi value of 7 or below (Ki of 100 nM or above))	A (A represents a pIC50 value≥7.5 (IC50≤32 nM))	B (B represents a value between 5×10^−6 and 10×10^−6 cm/sec)
C=CC(=O)N1CC(CCn2c(=O)ccc3cnc(Nc4cnn(CCF)c4)nc32)C1 [Example 63]	E (E represents a pKi value of 7 or below (Ki of 100 nM or above))	B (B represents pKi value between 9 and 10 (Ki between 1 nM and 0.1 nM))	A (A represents a value of 3 or above)	E (E represents a pKi value of 7 or below (Ki of 100 nM or above))	E (E represents a pKi value of 7 or below (Ki of 100 nM or above))	B (B represents a pC50 value between 6.7 (included) and 7.5 (IC50 between 200 nM and 32 nM))	A (A represents a value below 5×10^−6 cm/sec)
C=CC(=O)N1CC(CCn2c(=O)ccc3cnc(Nc4ccc(-n5cccn5)cc4)nc32)C1 [Example 66]	E (E represents a pKi value of 7 or below (Ki of 100 nM or above))	B (B represents pKi value between 9 and 10 (Ki between 1 nM and 0.1 nM))	A (A represents a value of 3 or above)	E (E represents a pKi value of 7 or below (Ki of 100 nM or above))	E (E represents a pKi value of 7 or below (Ki of 100 nM or above))	B (B represents a pC50 value between 6.7 (included) and 7.5 (IC50 between 200 nM and 32 nM))	C (C represents a value between 10×10^−6 and 30×10^−6 cm/sec)
C=CC(=O)N1CC(CCn2c(=O)ccc3cnc(Nc4ccc(-n5ccnn5)cc4)nc32)C1 [Example 67]	E (E represents a pKi value of 7 or below (Ki of 100 nM or above))	B (B represents pKi value between 9 and 10 (Ki between 1 nM and 0.1 nM))	A (A represents a value of 3 or above)	E (E represents a pKi value of 7 or below (Ki of 100 nM or above))	E (E represents a pKi value of 7 or below (Ki of 100 nM or above))	B (B represents a pC50 value between 6.7 (included) and 7.5 (IC50 between 200 nM and 32 nM))	B (B represents a value between 5×10^−6 and 10×10^−6 cm/sec)
C=CC(=O)N1CC(CCn2c(=O)ccc3cnc(Nc4ccc(NS(C)(=O)=O)cc4)nc32)C1 [Example 69]	E (E represents a pKi value of 7 or below (Ki of 100 nM or above))	A (A represents a pKi value≥10 (Ki≤0.1 nM))	A (A represents a value of 3 or above)	E (E represents a pKi value of 7 or below (Ki of 100 nM or above))	E (E represents a pKi value of 7 or below (Ki of 100 nM or above))	B (B represents a pC50 value between 6.7 (included) and 7.5 (IC50 between 200 nM and 32 nM))	A (A represents a value below 5×10^−6 cm/sec)
C=CC(=O)N1CC(CCn2c(=O)ccc3cnc(Nc4ccc(N5CCN(C(=O)COC)CC5)cc4)nc32)C1 [Example 70]	E (E represents a pKi value of 7 or below (Ki of 100 nM or above))	B (B represents pKi value between 9 and 10 (Ki between 1 nM and 0.1 nM))	A (A represents a value of 3 or above)	E (E represents a pKi value of 7 or below (Ki of 100 nM or above))	E (E represents a pKi value of 7 or below (Ki of 100 nM or above))	B (B represents a pC50 value between 6.7 (included) and 7.5 (IC50 between 200 nM and 32 nM))	A (A represents a value below 5×10^−6 cm/sec)
C=CC(=O)N1CC(CCn2c(=O)ccc3cnc(Nc4ccc(N5CCN(C(=O)OC)CC5)cc4)nc32)C1 [Example 71]	E (E represents a pKi value of 7 or below (Ki of 100 nM or above))	B (B represents pKi value between 9 and 10 (Ki between 1 nM and 0.1 nM))	A (A represents a value of 3 or above)	E (E represents a pKi value of 7 or below (Ki of 100 nM or above))	E (E represents a pKi value of 7 or below (Ki of 100 nM or above))	B (B represents a pC50 value between 6.7 (included) and 7.5 (IC50 between 200 nM and 32 nM))	B (B represents a value between 5×10^−6 and 10×10^−6 cm/sec)
C=CC(=O)N1CC(CCn2c(=O)ccc3cnc(Nc4ccc(N5CCN(C(=O)CC#N)CC5)cc4)nc32)C1 [Example 72]	E (E represents a pKi value of 7 or below (Ki of 100 nM or above))	B (B represents pKi value between 9 and 10 (Ki between 1 nM and 0.1 nM))	A (A represents a value of 3 or above)	E (E represents a pKi value of 7 or below (Ki of 100 nM or above))	E (E represents a pKi value of 7 or below (Ki of 100 nM or above))	B (B represents a pC50 value between 6.7 (included) and 7.5 (IC50 between 200 nM and 32 nM))	A (A represents a value below 5×10^−6 cm/sec)
